Experiments:
[1] = tested on: UACC-62; assay: Anticancer activity, SRB assay, melanoma cell line UACC-62; format: cell-based; details: Homo sapiens; Melanoma UACC-62; 48 h continuous drug exposure; read-out: Growth Inhibition GI50
Procedure: (§1) Some of biological activity studies were carried out at the National Cancer Institute (NCI), Maryland, USA.
(§2) The compounds were evaluated for anticancer activity against sixty human cancer cells derived from nine cancer types (leukemia cell line, non-small-cell lung cell line, colon cell line, CNS cell line, melanoma cell line, ovarian cell line, prostate cell line, renal cell line and breast cancer cell line) as shown in Table 1. For each compound, dose response curves for each cell line were measured at a minimum of five concentrations at 10 fold dilutions. A protocol of 48 h continuous drug exposure was used and a sulforhodamine B (SRB) protein assay was used to estimate cell viability or growth.

[2] = tested on: SF-295; assay: Anticancer activity, SRB assay, CNS cell line SF-295; format: cell-based, human; details: Homo sapiens; CNS SF-295; 48 h continuous drug exposure; —^b means GI50 values not attained at the concentrations used; read-out: Growth Inhibition GI50
Procedure: as §1, §2

[3] = tested on: SK-OV-3; assay: Anticancer activity, SRB assay, ovarian cell line SK-OV-3; format: cell-based, human; details: Homo sapiens; Ovarian SK-OV-3; 48 h continuous drug exposure; —^b means GI50 values not attained at the concentrations used; read-out: Growth Inhibition GI50
Procedure: as §1, §2

[4] = tested on: SN12C; assay: Anticancer activity, SRB assay, renal cell line SN12C; format: cell-based, human; details: Homo sapiens, 48 h continuous drug exposure, —^b means GI50 values not attained at the concentrations used, read-out: Growth Inhibition GI50
Procedure: as §1, §2

[5] = tested on: LOX IMVI; assay: Anticancer activity, SRB assay, melanoma cell line LOX IMVI; format: cell-based; details: Homo sapiens, 48 h continuous drug exposure, read-out: Growth Inhibition GI50
Procedure: as §1, §2

[6] = tested on: UO-31; assay: Anticancer activity, SRB assay, renal cell line UO-31; format: cell-based, human; details: Homo sapiens; Renal UO-31; 48 h continuous drug exposure; —^b means GI50 values not attained at the concentrations used; read-out: Growth Inhibition GI50
Procedure: as §1, §2

[7] = tested on: SF-268; assay: Anticancer activity, SRB assay, CNS cell line SF-268; format: cell-based, human; details: Homo sapiens; CNS SF-268; 48 h continuous drug exposure; —^b means GI50 values not attained at the concentrations used; read-out: Growth Inhibition GI50
Procedure: as §1, §2

[8] = tested on: HOP-62; assay: Anticancer activity, SRB assay, non-small lung cell line HOP-62; format: cell-based, human; details: Homo sapiens; Non-small lung HOP-62; 48 h continuous drug exposure; —^b means GI50 values not attained at the concentrations used; read-out: Growth Inhibition GI50
Procedure: as §1, §2

[9] = tested on: A549/ATCC; assay: Anticancer activity, SRB assay, non-small lung cell line A549/ATCC; format: cell-based, human; details: Homo sapiens, 48 h continuous drug exposure, —^b means GI50 values not attained at the concentrations used, read-out: Growth Inhibition GI50
Procedure: as §1, §2

[10] = tested on: IGROV1; assay: Anticancer activity, SRB assay, ovarian cell line IGROV1; format: cell-based, human; details: Homo sapiens, IGROV-1, 48 h continuous drug exposure, —^b means GI50 values not attained at the concentrations used, read-out: Growth Inhibition GI50
Procedure: as §1, §2

[11] = tested on: MDA-MB-468; assay: Anticancer activity, SRB assay, breast cell line MDA-MB-468; format: cell-based; details: Homo sapiens; Breast MDA-MB-468; 48 h continuous drug exposure; read-out: Growth Inhibition GI50
Procedure: as §1, §2

[12] = tested on: seven colon cancer cell line (COLO 205, HCC-2998, HCT-116, HCT-15, HT29, KM12 and SW-620); assay: Anticancer activity, SRB assay, colon panel; format: cell-based, human
Procedure: as §1, §2

[13] = tested on: six breast cancer cell line (MCF-7, MDA-MB-231/ATCC, HS 578T, TD-47D, MDA-MB-468 and BT-549); assay: Anticancer activity, SRB assay, breast panel; format: cell-based, human
Procedure: as §1, §2

[14] = tested on: sixty human cancer cell lines derived from nine cancer types; assay: Anticancer activity against sixty human cancer cell lines; format: cell-based
Procedure: as §1, §2

[15] = tested on: six CNS cancer cell line (SF-268, SF-295, SF-539, SNB-19, SNB-75 and U251); assay: Anticancer activity, SRB assay, CNS panel; format: cell-based, human
Procedure: as §1, §2

[16] = tested on: HOP-92; assay: Anticancer activity, SRB assay, non-small lung cell line HOP-92; format: cell-based, human; details: Homo sapiens; Non-small lung HOP-92; 48 h continuous drug exposure; —^b means GI50 values not attained at the concentrations used; read-out: Growth Inhibition GI50
Procedure: as §1, §2

[17] = tested on: MCF7; assay: Anticancer activity, SRB assay, breast cell line MCF7; format: cell-based; details: Homo sapiens, 48 h continuous drug exposure, read-out: Growth Inhibition GI50
Procedure: as §1, §2

[18] = tested on: SF-539; assay: Anticancer activity, SRB assay, CNS cell line SF-539; format: cell-based, human; details: Homo sapiens; CNS SF-539; 48 h continuous drug exposure; —^b means GI50 values not attained at the concentrations used; read-out: Growth Inhibition GI50
Procedure: as §1, §2

[19] = tested on: CCRF-CEM; assay: Anticancer activity, SRB assay, leukemia cell line CCRF-CEM; format: cell-based, human; details: Homo sapiens, 48 h continuous drug exposure, —^b means GI50 values not attained at the concentrations used, read-out: Growth Inhibition GI50
Procedure: as §1, §2

[20] = tested on: NCI-H23; assay: Anticancer activity, SRB assay, non-small lung cell line NCI-H23; format: cell-based; details: Homo sapiens, Non-small lung NCl-H23, 48 h continuous drug exposure, read-out: Growth Inhibition GI50
Procedure: as §1, §2

[21] = tested on: TK-10; assay: Anticancer activity, SRB assay, renal cell line TK-10; format: cell-based, human; details: Homo sapiens; Renal TK-10; 48 h continuous drug exposure; —^b means GI50 values not attained at the concentrations used; read-out: Growth Inhibition GI50
Procedure: as §1, §2

[22] = tested on: eight renal cancer cell line (786-0, A498, ACHN, CAKI-1, SN12C, TK-10, UO-31 and RXF 393); assay: Anticancer activity, SRB assay, renal panel; format: cell-based, human; parameters: mean graph midpoint values (MG_MID) of Log10LC50 / mean graph midpoint values (MG_MID) of log10 TGI (Log10TGI50): unit not given here
Procedure: as §1, §2

[23] = tested on: HT29; assay: Anticancer activity, SRB assay, colon cell line HT29; format: cell-based; details: Homo sapiens, HT-29, 48 h continuous drug exposure, read-out: Growth Inhibition GI50
Procedure: as §1, §2

[24] = tested on: SK-MEL-28; assay: Anticancer activity, SRB assay, melanoma cell line SK-MEL-28; format: cell-based, human; details: Homo sapiens; Melanoma SK-MEL-28; 48 h continuous drug exposure; —^b means GI50 values not attained at the concentrations used; read-out: Growth Inhibition GI50
Procedure: as §1, §2

[25] = tested on: SR; assay: Anticancer activity, SRB assay, leukemia cell line SR; format: cell-based; details: Homo sapiens, 48 h continuous drug exposure, read-out: Growth Inhibition GI50
Procedure: as §1, §2

[26] = tested on: NCI/ADR-RES; assay: Anticancer activity, SRB assay, ovarian cell line NCI/ADR-RES; format: cell-based, human; details: Homo sapiens, NCI/ADR-RES; Ovarian NCl/ADR-RES; 48 h continuous drug exposure; —^b means GI50 values not attained at the concentrations used; read-out: Growth Inhibition GI50
Procedure: as §1, §2

[27] = tested on: MDA-MB-435; assay: Anticancer activity, SRB assay, melanoma cell line MDA-MB-435; format: cell-based, human; details: Homo sapiens; Melanoma MDA-MB-435; 48 h continuous drug exposure; —^b means GI50 values not attained at the concentrations used; read-out: Growth Inhibition GI50
Procedure: as §1, §2

Cc1cc(C#Cc2ccccc2)ccc1-n1c(/C=C/c2cc(O)ccc2O)nc2ccccc2c1=O [Compound 4c, (E)-2-(2,5-Dihydroxystyryl)-3-(2-methyl-4-(phenylethynyl)phenyl)quinazolin-4(3H)-one]
GI50 [1]: 1520 nM | GI50 [2]: 1350 nM | GI50 [3]: 1830 nM | GI50 [4]: 1620 nM | GI50 [5]: 1370 nM | GI50 [6]: 1160 nM | GI50 [7]: 1310 nM | GI50 [8]: 1710 nM | GI50 [9]: 1280 nM | GI50 [10]: 2450 nM | GI50 [11]: 1610 nM | mean graph midpoint values (MG_MID) of log10 TGI (Log10TGI50) ([12]; Colon, log value of concentration of the compound resulting in total inhibition of net cell growth): −5.53 | mean graph midpoint values (MG_MID) of Log10LC50 ([12]; Colon, log value of the concentration of compounds leading to 50% net cell death): −5.23 | mean graph midpoint values (MG_MID) of Log10GI50 ([12]; Colon, log values of concentration in mol/L causing 50% inhibition of net cell growth): −5.83 mol/L | GI50 ([12]; Homo sapiens, seven colon cancer cell line, exposure period of at least 48 h, read-out: GI50 (range over the panel)): 1030 to 1950 nM | mean graph midpoint values (MG_MID) of log10 TGI (Log10TGI50) ([13]; Breast, log value of concentration of the compound resulting in total inhibition of net cell growth): −5.39 | mean graph midpoint values (MG_MID) of Log10LC50 ([13]; Breast, log value of the concentration of compounds leading to 50% net cell death): −4.66 | mean graph midpoint values (MG_MID) of Log10GI50 ([13]; Breast, log values of concentration in mol/L causing 50% inhibition of net cell growth): −5.84 mol/L | GI50 ([13]; Homo sapiens, six breast cancer cell line, exposure period of at least 48 h, read-out: GI50 (range over the panel)): 1140 to 1610 nM | in vitro anticancer activity (in words) [14]: exhibiting an in vitro anticancer activity | mean graph midpoint values (MG_MID) of log10 TGI (Log10TGI50) ([15]; CNS, log value of concentration of the compound resulting in total inhibition of net cell growth): −5.50 | mean graph midpoint values (MG_MID) of Log10LC50 ([15]; CNS, log value of the concentration of compounds leading to 50% net cell death): −5.15 | mean graph midpoint values (MG_MID) of Log10GI50 ([15]; CNS, log values of concentration in mol/L causing 50% inhibition of net cell growth): −5.85 mol/L | GI50 ([15]; Homo sapiens, six CNS cancer cell line, exposure period of at least 48 h, read-out: GI50 (range over the panel)): 1300 to 1620 nM | GI50 [16]: 1540 nM | GI50 [17]: 1450 nM | GI50 [18]: 1600 nM | GI50 [19]: 1540 nM | GI50 [20]: 1480 nM | GI50 [21]: 2030 nM | GI50 ([22]; Homo sapiens, eight renal cancer cell line, exposure period of at least 48 h, read-out: in vitro anticancer activity (range over the panel)): 370 to 2150 nM | mean graph midpoint values (MG_MID) of log10 TGI (Log10TGI50) ([22]; Renal, log value of concentration of the compound resulting in total inhibition of net cell growth): −5.43 | mean graph midpoint values (MG_MID) of Log10LC50 ([22]; Renal, log value of the concentration of compounds leading to 50% net cell death): −4.93 | mean graph midpoint values (MG_MID) of Log10GI50 ([22]; Renal, log values of concentration in mol/L causing 50% inhibition of net cell growth): −5.86 mol/L | GI50 [23]: 1950 nM | GI50 [24]: 1530 nM | GI50 [25]: 1100 nM | GI50 [26]: 2060 nM | GI50 [27]: 1670 nM

Reference: patent US8680272B2, “3-arylethynyl substituted quinazolinone compounds” (Council of Scientific & Industrial Research, priority 2011, dated 2014)
